2 molecules from ChEMBL document CHEMBL1629699, “Cell wall thickening is not a universal accompaniment of the daptomycin nonsusceptibility phenotype in Staphylococcus aureus: evidence for multiple resistance mechanisms” (Antimicrob Agents Chemother, 2010) can be followed below.

Broadly, the MIC is the lowest concentration found to suppress growth. Low readings indicate inhibition by little substance, high ones a need for much substance.

The test system of data set [1] is Staphylococcus aureus. Description: Antimicrobial activity against Staphylococcus aureus CB1482 after 24 hrs by plate reader analysis. To be noted: CB1482, 24 h.
The subject of data set [2] is Staphylococcus aureus. Description: Antimicrobial activity against Staphylococcus aureus CB5035 by Etest. It is filed as functional.
The subject of data set [3] is Staphylococcus aureus. As to the kind of experiment: Antimicrobial activity against Staphylococcus aureus CB5036 by Etest. The class given is functional.
Data set [4] concerns Staphylococcus aureus. Description: Antimicrobial activity against Staphylococcus aureus CB5053 by Etest.
Data set [5] has as its system Staphylococcus aureus. As to the kind of experiment: Antimicrobial activity against Staphylococcus aureus CB5054 by Etest. The class given is functional.
The test system of data set [6] is Cell membrane. As to the kind of experiment: Binding affinity to methicillin-susceptible Staphylococcus aureus 11/11 cell membrane assessed as amount of compound bound at 6 ug after 10 mins.
Data set [7] relates to Staphylococcus aureus. Description: Antimicrobial activity against Staphylococcus aureus BMC1001 by Etest.
Data set [8] deals with Staphylococcus aureus. As to the kind of experiment: Antimicrobial activity against Staphylococcus aureus CB184 after 24 hrs by Etest. The conditions noted are these: CB184, 24 h.
Data set [9] concerns Staphylococcus aureus. Description: Antimicrobial activity against Staphylococcus aureus BMC1002 by Etest. The class given is functional.
Data set [10] has as its system Cell membrane. Description: Binding affinity to daptomycin-resistant Staphylococcus aureus REF2145 cell membrane assessed as amount of compound bound at 6 ug after 10 mins.
Data set [11] has as its system Staphylococcus aureus. Description: AUC in methicillin-resistant sStaphylococcus aureus 11/11. The conditions noted are these: in vitro population analysis.
In data set [12] the test system is Cell membrane. As to the kind of experiment: Binding affinity to methicillin-susceptible Staphylococcus aureus 11/11 cell membrane assessed as amount of compound bound at 8 ug after 10 mins.
Data set [13] concerns Cell membrane. Description: Binding affinity to daptomycin-resistant Staphylococcus aureus REF2145 cell membrane assessed as amount of compound bound at 8 ug after 10 mins.

Each structure is given as a SMILES string. Values after ≈ are worked out from the molar mass of the structure shown.

Consider `CCCCCCCCCC(=O)N[C@@H](Cc1c[nH]c2ccccc12)C(=O)N[C@H](CC(N)=O)C(=O)N[C@@H](CC(=O)O)C(=O)N[C@@H]1C(=O)NCC(=O)N[C@@H](CCCN)C(=O)N[C@@H](CC(=O)O)C(=O)N[C@H](C)C(=O)N[C@@H](CC(=O)O)C(=O)NCC(=O)N[C@H](CO)C(=O)N[C@@H]([C@H](C)CC(=O)O)C(=O)N[C@@H](CC(=O)c2ccccc2N)C(=O)O[C@@H]1C`, for which the MIC in data set [1] stood at 0.5 µg/mL (≈ 0.309 µM); in [2] it was 0.38 µg/mL (≈ 0.234 µM); in data set [3] it was 2 µg/mL (≈ 1.23 µM); in [4] it was 0.5 µg/mL (≈ 0.309 µM); in [5], 2 µg/mL (≈ 1.23 µM); in data set [7], 0.5 µg/mL (≈ 0.309 µM). The MIC came out at 4 µg/mL (≈ 2.47 µM) in data set [8] and 2 µg/mL (≈ 1.23 µM) in data set [9]. Also, the Activity is 2.03 µg/mL in [6] and 0.79 µg/mL in [10]. Also, the AUC in data set [11] is 8.41 µg/mL.
Consider `CN[C@H](CC(C)C)C(=O)N[C@H]1C(=O)N[C@@H](CC(N)=O)C(=O)N[C@H]2C(=O)N[C@H]3C(=O)N[C@H](C(=O)N[C@H](C(=O)O)c4cc(O)cc(O)c4-c4cc3ccc4O)[C@H](O)c3ccc(c(Cl)c3)Oc3cc2cc(c3O[C@@H]2O[C@H](CO)[C@@H](O)[C@H](O)[C@H]2O[C@H]2C[C@](C)(N)[C@H](O)[C@H](C)O2)Oc2ccc(cc2Cl)[C@H]1O` [VANCOMYCIN], for which the Activity in data set [12] worked out at 1.81 µg/mL; in data set [13], 1.78 µg/mL. The AUC in data set [11] was 5.96 µg/mL.
